From ChEMBL document CHEMBL3352058, “Inhibition of microbial β-N-acetylhexosaminidases by 4-deoxy- and galacto-analogues of NAG-thiazoline” (Bioorg Med Chem Lett, 2014) come the findings set out here.

The nature of assay [1]: Inhibition of Streptomyces plicatus beta-N-acetylhexosaminidase GH20 using p-nitrophenyl 2-acetamido-2-deoxy-beta-D-glucosaminide substrate at pH 7.0 and 25 degC.
A short description of assay [2]: Inhibition of Talaromyces flavus beta-N-acetylhexosaminidase GH20 using p-nitrophenyl 2-acetamido-2-deoxy-beta-D-glucosaminide substrate at pH 7.0 and 25 degC.
Assay [3] can be described thus: Inhibition of Bacteroides thetaiotaomicron beta-N-acetylglucosaminidase GH84 using p-nitrophenyl 2-acetamido-2-deoxy-beta-D-glucosaminide substrate at pH 7.0 and 25 degC.

Molecules are shown by their SMILES.

As usually defined, the Ki is the equilibrium dissociation constant of an inhibitor or competing ligand from its target. Consider `CC1=N[C@@H]2[C@@H](O)[C@H](O)[C@@H](CO)O[C@@H]2S1`, for which the Ki in assay [1] stood at 24 µM; in assay [2], 42.7 µM; in assay [3], 0.029 µM.

Take `CC1=N[C@H]2[C@H](O[C@H](CO)C[C@@H]2O)S1`: the figures for the Ki in assay [1], in assay [2] and in assay [3] were 9900 µM, 1890 µM and 1830 µM, respectively.

With `CC1=N[C@@H]2[C@@H](O)[C@@H](O)[C@@H](CO)O[C@@H]2S1`, the inhibitory constant (Ki) in assay [1] was 90.8 µM; in assay [2], 393 µM.
